Consider 69 targets from the supplement of paper PMC6411743.

Compound in this experiment: Nc1ncnc2c1ncn2[C@@H]1O[C@H](COP(=O)(O)OP(=O)(O)OP(=O)(O)O)[C@@H](O)[C@H]1O [adenosine triphosphate]
Briefly: pEC50 of ATP-induced change in protein thermal stability (2D-TPP). In short, it runs like this:
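pEC50 was obtained by fitting dose-response curves for each replicate over pairs of adjacent temperatures, and hits were assigned using permutation-based false discovery rate control. The input came from Jurkat crude lysate treated with five concentrations including vehicle (10 min, room temperature), heated at 12 temperatures from 42 to 63.9 °C for 3 min, then given NP40 and benzonase (60 min, 4 °C). After ultracentrifugation, soluble protein was quantified by TMT LC-MS/MS as median-normalised fold changes versus vehicle per temperature, across three independent experiments.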
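Also: lysate dosed with Na-ATP at 0 0.005 0.05 0.5 and 2 mM.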

Chain of UniProt Q9NYV4 (Q9NYV4 whole entry, looked up): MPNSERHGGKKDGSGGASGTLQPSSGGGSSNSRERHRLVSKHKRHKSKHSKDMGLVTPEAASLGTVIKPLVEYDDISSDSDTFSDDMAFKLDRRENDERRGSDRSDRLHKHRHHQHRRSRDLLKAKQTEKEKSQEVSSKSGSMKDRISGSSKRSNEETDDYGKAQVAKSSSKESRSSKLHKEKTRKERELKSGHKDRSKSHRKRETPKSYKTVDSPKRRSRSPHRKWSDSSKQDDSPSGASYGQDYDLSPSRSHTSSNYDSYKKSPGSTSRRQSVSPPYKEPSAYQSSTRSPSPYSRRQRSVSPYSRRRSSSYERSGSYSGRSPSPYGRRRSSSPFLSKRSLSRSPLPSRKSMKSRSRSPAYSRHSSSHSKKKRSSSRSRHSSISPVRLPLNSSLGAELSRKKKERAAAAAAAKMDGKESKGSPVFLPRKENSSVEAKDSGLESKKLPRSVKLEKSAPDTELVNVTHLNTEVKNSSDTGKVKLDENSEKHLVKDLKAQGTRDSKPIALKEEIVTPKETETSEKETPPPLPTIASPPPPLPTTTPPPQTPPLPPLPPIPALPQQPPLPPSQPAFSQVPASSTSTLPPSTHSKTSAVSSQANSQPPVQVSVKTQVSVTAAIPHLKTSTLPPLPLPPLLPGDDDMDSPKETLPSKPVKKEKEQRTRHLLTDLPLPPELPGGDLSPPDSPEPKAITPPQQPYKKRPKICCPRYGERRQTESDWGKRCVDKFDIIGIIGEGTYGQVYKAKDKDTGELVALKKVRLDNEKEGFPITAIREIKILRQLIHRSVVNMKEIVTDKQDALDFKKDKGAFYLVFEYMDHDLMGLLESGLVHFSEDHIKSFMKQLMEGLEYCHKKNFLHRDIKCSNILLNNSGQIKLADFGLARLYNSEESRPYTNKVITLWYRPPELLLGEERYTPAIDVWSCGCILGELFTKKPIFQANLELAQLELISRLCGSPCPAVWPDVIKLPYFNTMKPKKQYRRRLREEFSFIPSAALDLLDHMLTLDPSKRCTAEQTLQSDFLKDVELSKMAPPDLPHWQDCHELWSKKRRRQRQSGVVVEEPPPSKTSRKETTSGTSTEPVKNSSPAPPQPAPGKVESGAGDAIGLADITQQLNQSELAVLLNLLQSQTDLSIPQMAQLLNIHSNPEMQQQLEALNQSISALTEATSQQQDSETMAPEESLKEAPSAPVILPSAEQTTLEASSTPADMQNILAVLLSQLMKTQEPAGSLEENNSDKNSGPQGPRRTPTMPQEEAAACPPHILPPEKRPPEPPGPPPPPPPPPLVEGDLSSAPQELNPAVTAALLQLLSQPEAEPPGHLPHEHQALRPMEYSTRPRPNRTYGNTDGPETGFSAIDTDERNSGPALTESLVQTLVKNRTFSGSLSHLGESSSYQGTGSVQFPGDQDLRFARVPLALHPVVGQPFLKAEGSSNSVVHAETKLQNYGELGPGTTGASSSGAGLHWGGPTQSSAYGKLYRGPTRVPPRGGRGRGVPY
Chain of UniProt Q9P289 (Q9P289 whole entry, looked up): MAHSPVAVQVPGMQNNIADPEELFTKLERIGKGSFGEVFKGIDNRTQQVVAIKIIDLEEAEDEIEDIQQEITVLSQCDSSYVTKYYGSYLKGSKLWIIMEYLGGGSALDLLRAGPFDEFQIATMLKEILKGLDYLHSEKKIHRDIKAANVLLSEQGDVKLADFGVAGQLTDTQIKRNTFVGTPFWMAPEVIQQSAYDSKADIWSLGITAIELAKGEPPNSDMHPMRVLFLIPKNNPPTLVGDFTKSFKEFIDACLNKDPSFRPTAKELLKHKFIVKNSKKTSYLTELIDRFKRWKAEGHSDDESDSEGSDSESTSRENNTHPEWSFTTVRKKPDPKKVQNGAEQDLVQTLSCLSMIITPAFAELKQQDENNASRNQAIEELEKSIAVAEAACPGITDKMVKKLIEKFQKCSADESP
Chain of UniProt Q9BXW7 (Q9BXW7 whole entry): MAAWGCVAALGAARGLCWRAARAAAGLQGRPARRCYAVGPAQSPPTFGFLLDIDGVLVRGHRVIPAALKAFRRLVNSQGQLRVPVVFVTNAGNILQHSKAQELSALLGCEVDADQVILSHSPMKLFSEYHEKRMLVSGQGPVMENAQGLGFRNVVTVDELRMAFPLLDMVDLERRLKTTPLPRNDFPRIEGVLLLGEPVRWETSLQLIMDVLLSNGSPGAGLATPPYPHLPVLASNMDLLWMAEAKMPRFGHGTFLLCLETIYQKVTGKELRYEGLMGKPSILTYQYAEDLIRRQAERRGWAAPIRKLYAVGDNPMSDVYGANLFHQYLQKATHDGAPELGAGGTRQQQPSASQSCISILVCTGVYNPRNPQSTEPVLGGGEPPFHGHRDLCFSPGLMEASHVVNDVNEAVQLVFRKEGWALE
Chain of UniProt Q9Y2H1 (Q9Y2H1 whole entry, looked up): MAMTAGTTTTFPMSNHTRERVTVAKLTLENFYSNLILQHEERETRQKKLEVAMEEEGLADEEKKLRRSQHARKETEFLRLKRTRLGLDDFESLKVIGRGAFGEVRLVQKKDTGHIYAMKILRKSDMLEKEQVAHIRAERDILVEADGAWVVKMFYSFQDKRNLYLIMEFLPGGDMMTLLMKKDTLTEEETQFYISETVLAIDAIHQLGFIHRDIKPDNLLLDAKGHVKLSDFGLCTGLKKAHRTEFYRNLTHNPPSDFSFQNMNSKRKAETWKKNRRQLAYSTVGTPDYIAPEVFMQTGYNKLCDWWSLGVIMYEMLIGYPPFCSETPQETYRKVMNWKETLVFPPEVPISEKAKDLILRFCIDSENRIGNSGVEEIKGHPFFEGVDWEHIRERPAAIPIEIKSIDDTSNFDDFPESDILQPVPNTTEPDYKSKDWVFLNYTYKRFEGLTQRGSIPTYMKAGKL
Chain of UniProt Q9NYL2 (Q9NYL2 whole entry, looked up): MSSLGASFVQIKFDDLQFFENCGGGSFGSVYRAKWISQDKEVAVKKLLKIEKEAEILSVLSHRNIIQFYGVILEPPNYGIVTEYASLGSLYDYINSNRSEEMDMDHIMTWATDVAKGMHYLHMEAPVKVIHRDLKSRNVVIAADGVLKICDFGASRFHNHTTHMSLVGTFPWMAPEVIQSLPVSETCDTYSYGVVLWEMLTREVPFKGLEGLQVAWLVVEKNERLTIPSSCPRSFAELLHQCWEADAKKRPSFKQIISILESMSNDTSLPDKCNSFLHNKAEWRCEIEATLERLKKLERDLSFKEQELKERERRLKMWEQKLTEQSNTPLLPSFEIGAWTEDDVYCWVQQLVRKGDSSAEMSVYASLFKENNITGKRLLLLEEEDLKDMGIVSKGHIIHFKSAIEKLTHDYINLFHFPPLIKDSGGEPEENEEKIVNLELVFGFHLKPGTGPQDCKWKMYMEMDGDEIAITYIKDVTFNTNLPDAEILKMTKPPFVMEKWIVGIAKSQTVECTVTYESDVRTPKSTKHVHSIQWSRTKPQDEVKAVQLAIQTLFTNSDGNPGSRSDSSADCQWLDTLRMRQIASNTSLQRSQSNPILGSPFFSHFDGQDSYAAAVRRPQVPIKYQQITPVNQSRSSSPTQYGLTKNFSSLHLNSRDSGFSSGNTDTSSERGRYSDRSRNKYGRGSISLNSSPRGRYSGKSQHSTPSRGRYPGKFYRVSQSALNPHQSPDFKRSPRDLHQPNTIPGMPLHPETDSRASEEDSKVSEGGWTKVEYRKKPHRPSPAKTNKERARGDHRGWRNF
Chain of UniProt Q9UH99 (Q9UH99 whole entry): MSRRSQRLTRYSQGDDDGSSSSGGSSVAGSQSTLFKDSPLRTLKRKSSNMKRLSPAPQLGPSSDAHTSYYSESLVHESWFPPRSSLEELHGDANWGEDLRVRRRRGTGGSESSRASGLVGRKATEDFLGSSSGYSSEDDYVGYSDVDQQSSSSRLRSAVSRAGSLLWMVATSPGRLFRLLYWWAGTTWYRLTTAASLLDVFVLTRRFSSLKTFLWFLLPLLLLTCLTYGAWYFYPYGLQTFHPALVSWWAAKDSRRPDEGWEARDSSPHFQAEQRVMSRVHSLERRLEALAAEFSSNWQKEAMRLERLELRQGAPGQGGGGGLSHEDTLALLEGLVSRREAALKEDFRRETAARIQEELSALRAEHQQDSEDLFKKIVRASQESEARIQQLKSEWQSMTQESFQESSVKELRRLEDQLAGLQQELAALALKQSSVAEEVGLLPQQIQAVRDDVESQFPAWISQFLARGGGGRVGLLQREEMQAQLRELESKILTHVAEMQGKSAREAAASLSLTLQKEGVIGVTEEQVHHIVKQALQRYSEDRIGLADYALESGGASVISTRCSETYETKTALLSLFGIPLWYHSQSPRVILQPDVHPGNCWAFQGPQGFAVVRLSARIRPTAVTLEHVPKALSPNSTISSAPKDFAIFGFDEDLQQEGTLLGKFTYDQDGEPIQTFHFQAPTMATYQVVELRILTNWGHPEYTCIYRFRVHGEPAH
Chain of UniProt Q8WYJ6 (Q8WYJ6 whole entry): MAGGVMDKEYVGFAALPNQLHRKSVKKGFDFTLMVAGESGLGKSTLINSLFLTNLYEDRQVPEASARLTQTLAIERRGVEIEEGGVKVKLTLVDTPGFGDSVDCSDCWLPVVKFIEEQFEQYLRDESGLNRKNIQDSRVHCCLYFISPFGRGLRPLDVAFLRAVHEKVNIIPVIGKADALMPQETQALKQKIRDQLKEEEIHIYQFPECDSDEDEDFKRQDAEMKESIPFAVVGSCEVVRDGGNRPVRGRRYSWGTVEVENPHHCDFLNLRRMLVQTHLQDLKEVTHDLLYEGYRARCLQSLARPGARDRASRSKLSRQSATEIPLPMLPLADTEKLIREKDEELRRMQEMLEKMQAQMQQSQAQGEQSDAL
Chain of UniProt Q96C57 (Q96C57 whole entry): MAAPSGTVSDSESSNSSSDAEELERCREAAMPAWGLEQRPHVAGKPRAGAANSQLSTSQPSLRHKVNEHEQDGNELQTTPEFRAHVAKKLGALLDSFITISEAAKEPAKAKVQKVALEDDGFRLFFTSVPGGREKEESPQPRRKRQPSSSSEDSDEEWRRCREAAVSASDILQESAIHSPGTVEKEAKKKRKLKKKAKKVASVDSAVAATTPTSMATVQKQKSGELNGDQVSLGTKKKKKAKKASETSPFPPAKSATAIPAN

For the target “UniProt Q8N9R8 (effect direction: stabilized)”, the pEC50 was found to be 3.01. Next, “UniProt Q8N163 (effect direction: stabilized)”: 2.9; “UniProt Q8NBU5 (effect direction: stabilized)”: 3.06. Take “UniProt Q8NI60 (effect direction: stabilized)”: the pEC50 was 3.73. Next, “UniProt Q8TBX8 (effect direction: stabilized)”: 3.04; “UniProt Q8WXA9 (effect direction: stabilized)”: 3.39; “UniProt Q8WYJ6 (effect direction: stabilized)”: less than 2.7. The result for “UniProt Q9BQ61 (effect direction: destabilized)” reads 3.66. The result for “UniProt Q9BQ75 (effect direction: stabilized)” reads less than 2.7; that for “UniProt Q9BSJ8 (effect direction: stabilized)”, 3.08. Regarding “UniProt Q9BXW7 (effect direction: destabilized)”, the pEC50 amounted to 3.84.

Consider “UniProt Q9BY42 (effect direction: destabilized)”, for which the negative logarithm of the EC50 (pEC50) was found to be 3.25. In the case of “UniProt Q9HCP0 (effect direction: stabilized)”, the negative-log EC50 (pEC50) was determined as 3.72. The result for “UniProt Q9NQ88 (effect direction: stabilized)” reads 3.46; that for “UniProt Q9NQG6 (effect direction: stabilized)”, 3.74; that for “UniProt Q9NYL2 (effect direction: stabilized)”, 3.65. Next, “UniProt Q9NYV4 (effect direction: stabilized)”: 2.75. The result for “UniProt Q9NZM5 (effect direction: destabilized)” reads 2.72; that for “UniProt Q9P289 (effect direction: stabilized)”, 3.21; that for “UniProt Q9UBD5 (effect direction: stabilized)”, 3.47. As to “UniProt Q9UH99 (effect direction: stabilized)”, the negative logarithm of the EC50 (pEC50) stood at 3.34. Next, “UniProt Q9UKZ1 (effect direction: stabilized)”: 3.4; “UniProt Q9UPN6 (effect direction: stabilized)”: 3.96; “UniProt Q9UPN7 (effect direction: stabilized)”: 2.97. Next, “UniProt Q9Y2H1 (effect direction: stabilized)”: 3.71; “UniProt Q9Y2K2 (effect direction: stabilized)”: 3.43; “UniProt Q9Y2U5 (effect direction: stabilized)”: 3.72. Next, “UniProt Q9Y6E0 (effect direction: stabilized)”: 3.56; “UniProt Q9Y530 (effect direction: stabilized)”: 2.97.

As for “UniProt Q63HN8 (effect direction: stabilized)”, the pEC50 stood at 3. Next, “UniProt Q86U38 (effect direction: stabilized)”: less than 2.7; “UniProt Q86V81 (effect direction: destabilized)”: 3.07; “UniProt Q96BW9 (effect direction: stabilized)”: 3.16.

Turning to “UniProt Q96C57 (effect direction: destabilized)”, the negative logarithm of the EC50 (pEC50) was found to be 4.35.

For the target “UniProt Q96EK5 (effect direction: stabilized)”, the pEC50 came to 2.96.

Take “UniProt Q96G23 (effect direction: stabilized)”: the negative logarithm of the EC50 (pEC50) turned out to be 3.02.

In the case of “UniProt Q147X3 (effect direction: stabilized)”, the negative-log EC50 (pEC50) worked out at 2.88.

As for “UniProt Q00537 (effect direction: stabilized)”, the pEC50 was 2.73. The result for “UniProt Q02750 (effect direction: stabilized)” reads 4.06. Next, “UniProt Q05655 (effect direction: stabilized)”: 3.91; “UniProt Q08623 (effect direction: destabilized)”: less than 2.7; “UniProt Q12905 (effect direction: stabilized)”: 2.84. Next, “UniProt Q13043 (effect direction: stabilized)”: 3.38; “UniProt Q13131 (effect direction: stabilized)”: 3.29; “UniProt Q13188 (effect direction: stabilized)”: 3.25. Consider “UniProt Q13416 (effect direction: stabilized)”, for which the pEC50 is 3.4. Turning to “UniProt Q13885 (effect direction: stabilized)”, the pEC50 stood at 3.12. The result for “UniProt Q14004 (effect direction: stabilized)” reads 3.59; that for “UniProt Q14240 (effect direction: stabilized)”, 3.54. Next, “UniProt Q14289 (effect direction: stabilized)”: 3.03; “UniProt Q14562 (effect direction: stabilized)”: 3.56; “UniProt Q15046 (effect direction: stabilized)”: 3.22. The result for “UniProt Q15149 (effect direction: stabilized)” reads 2.72. Consider “UniProt Q15208 (effect direction: stabilized)”, for which the negative logarithm of the EC50 (pEC50) worked out at 3.24. The result for “UniProt Q15257 (effect direction: stabilized)” reads less than 2.7. Next, “UniProt Q15418 (effect direction: stabilized)”: 3.77; “UniProt Q16181 (effect direction: stabilized)”: less than 2.7.

For “UniProt Q92600 (effect direction: stabilized)”, the pEC50 was found to be 3.18. The result for “UniProt Q92615 (effect direction: stabilized)” reads 3.16; that for “UniProt Q92841 (effect direction: stabilized)”, 3.79; that for “UniProt Q92888 (effect direction: stabilized)”, less than 2.7. As for “UniProt Q92918 (effect direction: stabilized)”, the negative logarithm of the EC50 (pEC50) is 3.83. As to “VARS2 (effect direction: stabilized) (UniProt Q5ST30)”, the pEC50 was found to be 3.22. The result for “VPS35 (effect direction: stabilized) (UniProt Q96QK1)” reads less than 2.7. The result for “VTN (effect direction: destabilized) (UniProt P04004)” reads 3.24; that for “WDR1 (effect direction: stabilized) (UniProt O75083)”, less than 2.7; that for “WDR33 (effect direction: stabilized) (UniProt Q9C0J8)”, less than 2.7. Next, “WDR61 (effect direction: stabilized) (UniProt Q9GZS3)”: 2.85. “WRN (effect direction: stabilized) (UniProt Q14191)”: the pEC50 was 4.09.

Usually pEC50 stands for the EC50 on a negative log10 scale, so that one unit is a factor of ten.
